Literature values, collected in paper PMC9851200, “Multiparameter phenotypic screening for endogenous TFEB and TFE3 translocation identifies novel chemical series modulating lysosome function” (Autophagy, 2022).
Where two headings read alike, the source gives them in different places.

What was measured:
Parameters in all cases: method as in original PKIS2 published data
[1] = biological target: T1, kinases (KINOMEscan panel) (Homo sapiens, UniProt Q7L7X3); conditions: kinase TAOK1; Published KINOMEscan; ref original PKIS2 published data; cited from earlier work
T1 sequence (Q7L7X3 1-1001): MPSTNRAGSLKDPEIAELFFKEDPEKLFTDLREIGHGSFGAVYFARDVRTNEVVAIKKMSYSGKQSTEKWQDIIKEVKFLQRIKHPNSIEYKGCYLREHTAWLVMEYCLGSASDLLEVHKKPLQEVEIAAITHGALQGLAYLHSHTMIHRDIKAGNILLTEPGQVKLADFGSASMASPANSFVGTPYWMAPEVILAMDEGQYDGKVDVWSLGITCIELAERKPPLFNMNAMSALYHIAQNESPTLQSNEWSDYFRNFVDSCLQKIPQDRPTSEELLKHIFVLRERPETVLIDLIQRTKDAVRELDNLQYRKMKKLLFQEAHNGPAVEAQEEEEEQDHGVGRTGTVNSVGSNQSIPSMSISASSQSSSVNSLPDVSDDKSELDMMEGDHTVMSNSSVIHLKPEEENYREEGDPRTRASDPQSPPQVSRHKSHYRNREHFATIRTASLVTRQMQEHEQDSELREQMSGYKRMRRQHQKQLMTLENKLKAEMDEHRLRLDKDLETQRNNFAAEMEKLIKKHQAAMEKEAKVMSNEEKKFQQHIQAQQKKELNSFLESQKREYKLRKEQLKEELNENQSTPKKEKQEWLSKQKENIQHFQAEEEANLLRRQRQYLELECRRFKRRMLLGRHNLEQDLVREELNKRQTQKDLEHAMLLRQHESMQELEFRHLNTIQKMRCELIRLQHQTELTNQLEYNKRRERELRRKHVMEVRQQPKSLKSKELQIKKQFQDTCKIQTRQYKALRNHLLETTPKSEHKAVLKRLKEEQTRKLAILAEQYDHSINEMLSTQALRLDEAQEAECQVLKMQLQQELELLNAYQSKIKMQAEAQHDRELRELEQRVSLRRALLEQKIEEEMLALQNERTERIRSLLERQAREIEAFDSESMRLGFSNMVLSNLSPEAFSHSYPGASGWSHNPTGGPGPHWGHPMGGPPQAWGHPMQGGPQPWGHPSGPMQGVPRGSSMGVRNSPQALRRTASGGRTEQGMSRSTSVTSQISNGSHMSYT

[2] = biological target: T2, kinases (KINOMEscan panel) (Homo sapiens, UniProt Q8TDC3); conditions: BRSK1; Published KINOMEscan; ref original PKIS2 published data; cited from earlier work
T2 sequence (Q8TDC3 1-778): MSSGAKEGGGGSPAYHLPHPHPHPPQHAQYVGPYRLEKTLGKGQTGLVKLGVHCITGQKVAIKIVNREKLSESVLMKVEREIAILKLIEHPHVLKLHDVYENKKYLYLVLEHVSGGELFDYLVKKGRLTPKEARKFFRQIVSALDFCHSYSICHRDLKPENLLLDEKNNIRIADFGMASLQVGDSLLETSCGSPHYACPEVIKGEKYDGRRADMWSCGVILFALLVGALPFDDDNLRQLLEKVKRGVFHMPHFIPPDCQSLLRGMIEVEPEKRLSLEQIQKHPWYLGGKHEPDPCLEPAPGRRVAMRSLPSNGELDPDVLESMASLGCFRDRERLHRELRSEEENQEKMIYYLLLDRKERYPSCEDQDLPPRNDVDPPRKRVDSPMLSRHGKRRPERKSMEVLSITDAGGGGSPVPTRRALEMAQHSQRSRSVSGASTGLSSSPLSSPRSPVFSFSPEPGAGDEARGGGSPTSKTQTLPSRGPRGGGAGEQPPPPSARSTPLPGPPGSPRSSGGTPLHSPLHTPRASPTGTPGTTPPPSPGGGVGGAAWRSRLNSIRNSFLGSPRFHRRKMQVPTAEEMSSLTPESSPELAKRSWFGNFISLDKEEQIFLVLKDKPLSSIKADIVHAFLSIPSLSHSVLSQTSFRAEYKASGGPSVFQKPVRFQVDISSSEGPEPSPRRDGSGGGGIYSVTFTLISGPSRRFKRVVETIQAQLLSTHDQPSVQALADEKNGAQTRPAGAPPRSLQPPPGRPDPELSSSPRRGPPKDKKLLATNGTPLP

[3] = tested on: kinases (KINOMEscan panel); conditions: Published KINOMEscan, ref original PKIS2 published data, cited from earlier work

For `Cc1cccc(-c2nc(Nc3ccncc3)c3ccccc3n2)n1` [NK215], the “KINOMEscan TAOK1” value [1] is listed as 0, the “KINOMEscan BRSK1” value [2] is listed as 0 and the “KINOMEscan PRKAA2” value [3] is listed as 0. The “KINOMEscan PRKAA2” value ([3]; kinase PRKAA2) was 12.
